The source of these data is patent US20060247305A1, “Chromen-4-one inhibitors of anti-apoptotic Bcl-2 family members and the uses thereof” (Regents of the University of Michigan, priority 2005, published 2006).

Like-named read-outs stand apart in the source and are kept apart here. Bounds are passed on as bounds.

Test [1] has as its target Bcl-2 recombinant His-fused soluble protein (Homo sapiens, UniProt P10415). Nature of the test: Bcl-2 fluorescence polarization-based competitive binding assay (Flu-Bid-21 peptide). The note with it: for Ki: FP assay, 0.120 μM Bcl-2, 0.010 μM Flu-Bid-21, 4 hours incubation, Ki calculated from IC50, read-out: Binding Affinity Ki (μM) Bc1-2; for fold decrease of binding affinity to Bcl-2: relative to the parent analogue (15c, 15d compared with 15b; 15j: removal of the big hydrophobic group).

Test [2] concerns the target T1, human Bcl-xL recombinant His-tagged protein (Homo sapiens, UniProt Q07817).
T1 construct: without the C-terminus hydrophobic tail; His
Nature of the test: Bcl-xL fluorescence polarization-based competitive binding assay (Flu-Bak peptide). The note with it: for Ki: FP assay, 60 nM Bcl-xL, 5 nM Flu-Bak peptide, Ki calculated from IC50; for fold decrease of binding affinity to Bcl-xL: relative to the parent analogue (15d compared with 15b; 15j: removal of the big hydrophobic group).

The subject of test [3] is PC-3 prostate cancer cells. Nature of the test: Cell growth inhibition, MTT, PC-3 prostate cancer cells. Type of test: cell-based, human. To be noted: for IC50: Homo sapiens, 120 h, 5 days incubation, MTT cell viability, read-out: Cellular Activity IC50 (μM) PC3. The protocol: (§1) To test the effect of compounds of the present invention on inhibition of cell growth in human cancer cells, the compounds were administered to two different cancer cell lines. PC-3 prostate cancer cells and 2LMP breast cancer cells were each seeded in 96-well plates with increasing concentrations of inhibitor compounds. The cells were then incubated at 37° C. with 5% CO2 for 5 days, followed by detection of cell viability with MTT. Untreated cells were used as 100% growth.

The test system of a further test is 2LMP breast cancer cells. Nature of the test: Cell growth inhibition, MTT, 2LMP breast cancer cells. Type of test: cell-based, human. The note with it: for IC50: Homo sapiens, 120 h, 5 days incubation, MTT cell viability, read-out: Cellular Activity IC50 (μM) 2LMP. As to the method: as §1
[4] abbreviates: read-out: Binding Affinity Ki (μM) Bc1-xL.

Bcl-2 recombinant His-fused soluble protein, sequence (P10415 whole entry, the tested form may be a part): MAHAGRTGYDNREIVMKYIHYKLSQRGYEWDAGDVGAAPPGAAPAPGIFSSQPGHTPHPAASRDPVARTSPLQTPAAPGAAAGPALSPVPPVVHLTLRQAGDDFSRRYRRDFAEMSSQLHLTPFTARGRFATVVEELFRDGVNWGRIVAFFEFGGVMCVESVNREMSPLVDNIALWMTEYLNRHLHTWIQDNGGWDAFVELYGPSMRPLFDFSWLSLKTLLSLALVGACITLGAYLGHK
T1 sequence (Q07817 1-209 limits assumed): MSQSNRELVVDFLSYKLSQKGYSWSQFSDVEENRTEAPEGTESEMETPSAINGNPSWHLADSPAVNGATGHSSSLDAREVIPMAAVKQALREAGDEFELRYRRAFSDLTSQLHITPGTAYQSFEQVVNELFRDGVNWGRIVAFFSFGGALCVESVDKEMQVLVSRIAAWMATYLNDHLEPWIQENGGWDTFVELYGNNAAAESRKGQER

`COc1c(OC)c(OC)c2c(=O)c(-c3ccc4cc(O)ccc4c3)c(C)oc2c1CC(C)C` [Compound 15d, 3-(6-Hydroxy-naphthalen-2-yl)-8-isobutyl-5,6,7-trimethoxy-2-methyl-chromen-4-one]: the results for the Ki in test [1] and in test [2] (setting [4]) were 1.24 ± 0.13 µM and > 14 µM, respectively. Moreover, in test [1], the “fold decrease of binding affinity to Bcl-2” value (from here on “fold decrease … to Bcl-2”) is given as “more than 10 fold”. Also, the “fold decrease of binding affinity to Bcl-xL” value in test [2] is on record as “more than 10 fold”. The IC50 (as a rule, the concentration needed to halve the response being measured) in test [3] was 20.6 µM; in the test on 2LMP breast cancer cells, > 30 µM.
As to `Cc1oc2c(CC(C)C)c(O)c(O)c(O)c2c(=O)c1-c1ccccc1` [Compound 15f, 5,6,7-Trihydroxy-8-isobutyl-2-methyl-3-phenyl-chromen-4-one], the Ki (commonly a dissociation constant, usually derived from enzyme kinetics or from competition with a known ligand) in test [1] was 0.79 ± 0.03 µM; in test [2] (setting [4]) it was 4.27 ± 0.84 µM. The figures for the IC50 (in test [3]; in the test with 2LMP breast cancer cells) were 23.7 µM and 9.3 µM, respectively.
As to `Cc1oc2c(CC(C)C)c(O)c(O)c(O)c2c(=O)c1-c1ccc2c(C(C)C)c(O)ccc2c1` [Compound 2, 5,6,7-Trihydroxy-3-(6-hydroxy-5-isopropyl-naphthalen-2-yl)-8-isobutyl-2-methyl-chromen-4-one], the inhibition constant (Ki) was 0.088 µM in test [1] and 1.49 µM in test [2] (setting [4]). In addition, the IC50 is 1.82 µM in test [3] and 1.54 µM in the test on 2LMP breast cancer cells. Moreover, in test [3] (relative to gossypol), the “fold more potent than gossypol, cell growth inhibitory activity, PC3” value was 3 to 4 fold. The “fold more potent than gossypol, cell growth inhibitory activity, 2LMP” value in the test with 2LMP breast cancer cells (relative to gossypol) was in the range of 3 to 4 fold.
Regarding `Cc1oc2c(CC(C)C)c(O)c(O)c(O)c2c(=O)c1-c1ccc2ccccc2c1` [Compound 15c, 5,6,7-Trihydroxy-8-isobutyl-2-methyl-3-naphthalen-2-yl-chromen-4-one], the inhibitory constant (Ki) in test [1] is 0.39 ± 0.17 µM; in test [2] (setting [4]) it was 2.32 ± 0.26 µM. Besides, the “fold decrease … to Bcl-2” value in test [1] was “about 2 fold”. The IC50 in test [3] was 3.62 µM; in the test on 2LMP breast cancer cells, 2.08 µM.
For `CCOc1ccc2cc(-c3c(C)oc4c(CC(C)C)c(OC)c(OC)c(OC)c4c3=O)ccc2c1` [Compound 15e, 3-(6-Ethoxy-naphthalen-2-yl)-8-isobutyl-5,6,7-trimethoxy-2-methyl-chromen-4-one], the Ki in test [1] was > 12 µM; in test [2] (setting [4]) it was > 14 µM.
In the case of `Cc1cc2c(C(C)C)c(O)c(O)c(C=O)c2c(O)c1-c1c(C)cc2c(C(C)C)c(O)c(O)c(C=O)c2c1O` [gossypol, reference compound], in test [2] (Binding Affinity Ki (μM) Bc1-xL), the Ki was 1.97 ± 0.39 µM. The values for the IC50 (in test [3]; in the test with 2LMP breast cancer cells) were 9.7 µM and 6 µM, respectively.
Consider `Cc1oc2c(CC(C)C)c(O)c(O)c(O)c2c(=O)c1-c1ccc2cc(O)ccc2c1` [Compound 15b, 5,6,7-Trihydroxy-3-(6-hydroxy-naphthalen-2-yl)-8-isobutyl-2-methyl-chromen-4-one], for which the Ki in test [1] was 0.17 ± 0.02 µM; in test [2] (setting [4]) it was 1.71 ± 0.22 µM. Moreover, the values for the IC50 (in test [3]; in the test with 2LMP breast cancer cells) were 5.07 µM and 2.55 µM, respectively.
As for `Cc1cc(=O)c2c(O)c(O)c(O)c(CC(C)C)c2o1` [Compound 15j, 5,6,7-Trihydroxy-8-isobutyl-2-methyl-chromen-4-one], the inhibitory constant (Ki) in test [1] was 4.63 ± 0.16 µM; in test [2] (setting [4]), > 14 µM. Further, the “fold decrease … to Bcl-2” value in test [1] is recorded as > 50 fold. For the same molecule, the “fold decrease of binding affinity to Bcl-xL” value in test [2] is listed as “more than 10 fold”. For the same molecule, the IC50 in test [3] was 20.1 µM; in the test with 2LMP breast cancer cells it was > 30 µM.
As for `Cc1oc2c(CC(C)C)c(O)c(O)c(O)c2c(=O)c1-c1ccc2c(C)c(O)ccc2c1` [Compound 15a, 5,6,7-Trihydroxy-3-(6-hydroxy-5-methyl-naphthalen-2-yl)-8-isobutyl-2-methyl-chromen-4-one], the inhibition constant Ki in test [1] was 0.13 ± 0.01 µM; in test [2] (setting [4]) it was 1.78 ± 0.13 µM. Further, the IC50 in test [3] stood at 3.09 µM; with 2LMP breast cancer cells, 1.44 µM.
